Measured values taken from PubChem BioAssay AID256 (DTP/NCI, 2004).
Several values for one entry are separate records, joined by “and”; a condition that tells them apart may be missing. Identical values can stand only once. Toxic doses and inconclusive results are not listed.

System: CD2F1 mice, L1210 leukemia ip, survival T/C
Test: NCI In Vivo Anticancer Drug Screen. Data for tumor model L1210 Leukemia (intraperitoneal) in CD2F1 (CDF1) mice
Details: higher = longer survival
Outline: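 In this screen, transplantable tumors were grown in mice given either the compound or its vehicle. Results were expressed as the treated measurement relative to the control measurement.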

[1] = endpoint: mean survival time, dose: 100.0 mg/kg/injection, schedule: Q01DX009 (ip), vehicle: saline with Tween-80
[2] = endpoint: mean survival time, dose: 200.0 mg/kg/injection, schedule: Q01DX009 (ip), vehicle: saline with Tween-80
[3] = endpoint: mean survival time, dose: 400.0 mg/kg/injection, schedule: Q01DX009 (ip), vehicle: saline with Tween-80
[4] = endpoint: mean survival time, dose: 100.0 mg/kg/injection, schedule: Q04DX003 (ip), vehicle: saline with Tween-80
[5] = endpoint: mean survival time, dose: 200.0 mg/kg/injection, schedule: Q04DX003 (ip), vehicle: saline with Tween-80
[6] = endpoint: mean survival time, dose: 400.0 mg/kg/injection, schedule: Q04DX003 (ip), vehicle: saline with Tween-80

Structure (SMILES): COC(=O)c1cc(NC(=O)Nc2cc([N+](=O)[O-])ccc2Cl)cc(C(=O)OC)c1
- T/C (endpoint: mean survival time, dose: 50.0 mg/kg/injection, schedule: Q01DX001 (ip), vehicle: saline): 92 % of control
- T/C (endpoint: mean survival time, dose: 100.0 mg/kg/injection, schedule: Q01DX001 (ip), vehicle: saline): 86 % of control and 94 % of control
- T/C [1]: 89 % of control and 95 % of control
- T/C (endpoint: mean survival time, dose: 100.0 mg/kg/injection, schedule: Q04DX002 (ip), vehicle: saline): 96 % of control
- T/C (endpoint: mean survival time, dose: 100.0 mg/kg/injection, schedule: Q04DX003 (ip), vehicle: saline): 95 % of control
- T/C (endpoint: mean survival time, dose: 200.0 mg/kg/injection, schedule: Q01DX001 (ip), vehicle: saline): 89 % of control
- T/C [2]: 95 % of control and 102 % of control
- T/C (endpoint: mean survival time, dose: 200.0 mg/kg/injection, schedule: Q04DX002 (ip), vehicle: saline): 93 % of control and 107 % of control
- T/C (endpoint: mean survival time, dose: 200.0 mg/kg/injection, schedule: Q04DX003 (ip), vehicle: saline): 102 % of control
- T/C (endpoint: mean survival time, dose: 400.0 mg/kg/injection, schedule: Q01DX001 (ip), vehicle: saline): 88 % of control
- T/C [3]: 102 % of control and 103 % of control
- T/C (endpoint: mean survival time, dose: 400.0 mg/kg/injection, schedule: Q04DX002 (ip), vehicle: saline): 91 % of control and 96 % of control
- T/C (endpoint: mean survival time, dose: 400.0 mg/kg/injection, schedule: Q04DX003 (ip), vehicle: saline): 96 % of control

Structure (SMILES): Nc1ccc2ccc(NS(=O)(=O)N3CCCCC3)cc2c1
- T/C (endpoint: median survival time, dose: 25.0 mg/kg/injection, schedule: Q01DX009 (ip), vehicle: saline with Tween-80): 118 % of control and 101 % of control and 106 % of control
- T/C (endpoint: median survival time, dose: 50.0 mg/kg/injection, schedule: Q01DX009 (ip), vehicle: saline with Tween-80): 100 % of control and 109 % of control and 112 % of control
- T/C (endpoint: median survival time, dose: 100.0 mg/kg/injection, schedule: Q01DX009 (ip), vehicle: saline with Tween-80): 114 % of control and 118 % of control and 119 % of control
- T/C (endpoint: median survival time, dose: 400.0 mg/kg/injection, schedule: Q01DX009 (ip), vehicle: saline with Tween-80): 182 % of control

Structure (SMILES): c1ccc2c(c1)oc1ccccc12
- T/C [4]: 98 % of control
- T/C [5]: 92 % of control
- T/C [6]: 92 % of control

Structure (SMILES): COc1c(C)c(Br)c(OC)c2ccccc12
- T/C [4]: 94 % of control
- T/C [5]: 94 % of control
- T/C [6]: 100 % of control

Structure (SMILES): O=C(C1=CN(CCCO)CCC1)c1cc2ccccc2n1S(=O)(=O)c1ccccc1
- T/C [4]: 104 % of control
- T/C [5]: 90 % of control
- T/C [6]: 97 % of control

Structure (SMILES): COC(=O)CC1(C(=O)OC)Nc2ccccc2C(=O)O1 (stereo not drawn)
- T/C (endpoint: mean survival time, dose: 100.0 mg/kg/injection, schedule: Q01DX001 (ip), vehicle: saline with Tween-80): 94 % of control
- T/C (endpoint: mean survival time, dose: 200.0 mg/kg/injection, schedule: Q01DX001 (ip), vehicle: saline with Tween-80): 96 % of control
- T/C (endpoint: mean survival time, dose: 400.0 mg/kg/injection, schedule: Q01DX001 (ip), vehicle: saline with Tween-80): 96 % of control

Structure (SMILES): NC1CCCCC1N.O=S(=O)([O-])CCCN1CCOCC1.O=S(=O)([O-])CCCN1CCOCC1.[Pt+4]
- T/C (endpoint: median survival time, dose: 3.12 mg/kg/injection, schedule: Q04DX003 (ip), vehicle: saline with Tween-80): 361 % of control
- T/C (endpoint: median survival time, dose: 6.25 mg/kg/injection, schedule: Q04DX003 (ip), vehicle: saline with Tween-80): 174 % of control and 361 % of control
- T/C (endpoint: median survival time, dose: 12.5 mg/kg/injection, schedule: Q04DX003 (ip), vehicle: saline with Tween-80): 195 % of control and 196 % of control
- T/C (endpoint: median survival time, dose: 25.0 mg/kg/injection, schedule: Q04DX003 (ip), vehicle: saline with Tween-80): 341 % of control and 361 % of control
- T/C (endpoint: median survival time, dose: 50.0 mg/kg/injection, schedule: Q04DX003 (ip), vehicle: saline with Tween-80): 228 % of control and 365 % of control

Structure (SMILES): O=C(Nc1ccccc1)Oc1ccc(OCc2ccccc2)cc1
- T/C (endpoint: mean survival time, dose: 12.5 mg/kg/injection, schedule: Q01DX009 (ip), vehicle: saline with Tween-80): 94 % of control
- T/C (endpoint: mean survival time, dose: 25.0 mg/kg/injection, schedule: Q01DX009 (ip), vehicle: saline with Tween-80): 90 % of control
- T/C (endpoint: mean survival time, dose: 50.0 mg/kg/injection, schedule: Q01DX009 (ip), vehicle: saline with Tween-80): 92 % of control

Structure (SMILES): Clc1ccc(Br)c2c1CCC2
- T/C (endpoint: mean survival time, dose: 100.0 mg/kg/injection, schedule: Q04DX003 (ip), vehicle: acetone): 101 % of control
- T/C (endpoint: mean survival time, dose: 200.0 mg/kg/injection, schedule: Q04DX003 (ip), vehicle: acetone): 100 % of control

Structure (SMILES): CSCCC(NC(=O)COc1ccc(Cl)cc1Cl)C(=O)O (stereo not drawn)
- T/C (endpoint: mean survival time, dose: 50.0 mg/kg/injection, schedule: Q01DX009 (ip), vehicle: Klucel (hydroxypropylcellulose) (HPC)): 100 % of control
- T/C (endpoint: mean survival time, dose: 100.0 mg/kg/injection, schedule: Q01DX009 (ip), vehicle: Klucel (hydroxypropylcellulose) (HPC)): 89 % of control
- T/C (endpoint: mean survival time, dose: 200.0 mg/kg/injection, schedule: Q01DX009 (ip), vehicle: Klucel (hydroxypropylcellulose) (HPC)): 91 % of control

Structure (SMILES): CC(=O)C1CC2c3ccccc3C1c1ccccc12 (stereo not drawn)
- T/C [1]: 98 % of control
- T/C (endpoint: mean survival time, dose: 100.0 mg/kg/injection, schedule: Q04DX003 (ip), vehicle: saline sonified): 100 % of control
- T/C [2]: 98 % of control
- T/C (endpoint: mean survival time, dose: 200.0 mg/kg/injection, schedule: Q04DX003 (ip), vehicle: saline sonified): 98 % of control
- T/C [3]: 95 % of control
- T/C (endpoint: mean survival time, dose: 400.0 mg/kg/injection, schedule: Q04DX003 (ip), vehicle: saline sonified): 91 % of control
